Measurements: patent US20110237676A1, “SPERMICIDAL AND MICROBICIDAL COMPOSITIONS” (LEHIGH UNIVERSITY, priority 2007, published 2011)

What was measured:
Candida albicans = test: Effects on microbes: growth inhibition of Candida albicans; type: cell-based; details: for inhibition of growth of Candida: 400 mM
Text: (§1) Fluorous surfactants also disrupt the membranes of pathogenic microbes, and they therefore have microbicidal activities. Preferably, they are toxic to pathogenic microorganisms, yet compatible with the flora normally found in human mucosal (e.g., vaginal) tissues. The effects of various fluorous surfactants on some laboratory models of pathogenic microorganisms (Escherichia coli, Saccharomyces cerevisiae, and Candida albicans) were studied.

[1] = tested on: acrosome of human spermatozoa; test: Acrosome integrity by FITC-PSA staining, epifluorescence microscopy; type: cell-based; details: average; for Type I: bright acrosome; for Type III: equatorial segment; for Type II: medium acrosome; for Type IV: no labeling
Method: (§2) The general experimental protocol was as follows: Whole semen, obtained from human subjects after informed consent, was treated with various concentrations of fluorous surfactants. Samples were incubated for 5-10 min at 37° C. and 5% CO2. Semen samples were diluted in an isotonic buffered human sperm medium containing glucose. Sperm motility was scored as “% motility” using differential interference microscopy (“DIC”). Cell necropsy was determined by propidium iodide (“PI”) staining, which is known to stain the DNA of dead cells, and “% death” was scored using epifluorescence microscopy (stained and unstained sperm cells were counted to obtain a live/dead ratio). Acrosome integrity was determined with epifluorescence microscopy and fluorescein-conjugated Pisum sativum agglutinin (“FITC-PSA”) staining, the staining patterns of which are known to indicate the status of the acrosomal membrane.
Staining with fluorescein isothiocyanate Pisium sativum agglutinin (“FITC-PSA”) is known to stain components of the acrosome, and the staining pattern differs depending on the condition of the acrosomal membrane. This technique may be used to identify whether the acrosome is intact. Various patterns of fluorescence are seen after labeling of air-dried human spermatozoa with FITC lectins, including a bright acrosome (Type I), a medium acrosome (Type II), an equatorial segment (Type III), and no labeling (Type IV). See, e.g., Mortimer et al., “Specific Labelling by Peanut Agglutinin of The Outer Acrosomal Membrane of The Human Spermatozoon,” J. Reprod. Fert. 81, 127-35 (1987). Averages of FTIC-PSA results are presented in Table 6, which includes percentages of acrosomes compromised and types of sperm visualized in the control and treated samples.

Escherichia coli = test: Effects on microbes: growth inhibition of E. coli; type: cell-based
Text: as §1

[2] = tested on: sperm cells (whole semen); test: Sperm cell necropsy by propidium iodide (PI) staining, epifluorescence microscopy; type: cell-based, human
Method: as §2
(§3) To validate the general experimental protocol, the motility of whole semen treated with N-9 for 5 min was determined using DIC microscopy and PI staining Results are presented in Table 1.

[3] = tested on: sperm cells (whole semen); test: Sperm motility of treated whole semen scored by differential interference microscopy (DIC); type: cell-based, human
Method: as §2, §3

HeLa cells = test: Effects on HeLa (cervix) cells, morphology by microscopy; type: cell-based, human; details: 1.76 mM, 30 min
Text: The effects of nonoxynol-9 and various fluorous surfactants on HeLa cells, which are a laboratory model for human cervical cells, were studied. […] Accordingly, it is believed that use of a spermicidal fluorous surfactant will be less irritating to human vaginal tissue.

Compound: O=S(=O)([O-])CCCOCC(F)(F)C(F)(F)C(F)(F)F.[Na+] [F7-PS, sodium 3-(2,2,3,3,4,4,4-heptafluoro-butoxy)-propane-1-sulfonate]
- inhibition of growth of Candida (Candida albicans; exposure in the order of 24 hours): significant inhibition of growth
- inhibition of growth of Candida (Candida albicans; exposure limited to 3 or 6 hours): allowed recovery of growth
- Acrosome Compromised ([1]; 3%): 36%
- Acrosome Not Compromised ([1]; 3%): 64%
- Type I ([1]; 3%): 64%
- Type III ([1]; 3%): 0%
- Type II ([1]; 3%): 13%
- Type IV ([1]; 3%): 22%
- Acrosome Compromised ([1]; 4%): 100%
- Acrosome Not Compromised ([1]; 4%): 0%
- Type I ([1]; 4%): 0%
- Type III ([1]; 4%): <1%
- Type II ([1]; 4%): 4%
- Type IV ([1]; 4%): 95%
- Acrosome Compromised ([1]; 7%): 41%
- Acrosome Not Compromised ([1]; 7%): 59%
- Type I ([1]; 7%): 59%
- Type III ([1]; 7%): 0%
- Type II ([1]; 7%): 40%
- Type IV ([1]; 7%): 1%
- inhibition of E. coli (Escherichia coli; 250 mM, compared with F7-TEG/F5-TEG treatments): comparable inhibition
- % Death ([2]; 4%, 5 min): 90%
- % Death ([2]; 4%, 10 min): 99%
- % Death ([2]; 5%, 5 min): 96%
- % Death ([2]; 5%, 10 min): 96%
- % Death ([2]; 7%, 5 min): 100%
- % Motility ([3]; 4%, 5 min): <1%
- % Motility ([3]; 5%, 5 min): <1%
- % Motility ([3]; 5%, 10 min): 0%
- % Motility ([3]; 7%, 5 min): 0%

Compound: nonoxynol-9 [N-9, reference compound]
- morphological changes of HeLa cells (HeLa cells): significant morphological changes
- % Death ([2]; 0.001%, 5 min, PI staining): 38%
- killing of sperm cells ([2]; 1.76 mM, 5 min): kill essentially all sperm cells
- % Death ([2]; 0.005%, 5 min, PI staining): 60%
- % Death ([2]; 0.01%, 5 min, PI staining): 67%
- % Death ([2]; 0.1%, 5 min, PI staining): 94%
- % Motility ([3]; 0.001%, 5 min, whole semen): 43%
- % Motility ([3]; 0.005%, 5 min, whole semen): 60%
- % Motility ([3]; 0.01%, 5 min, whole semen): <1%
- % Motility ([3]; 0.1%, 5 min, whole semen): 0%

Compound: O=S(=O)([O-])CCCOCC(F)(F)C(F)(F)F.[Na+] [F5-PS]
- % Death ([2]; 6%, 5 min): 91%
- % Death ([2]; 6%, 10 min): 99%
- % Death ([2]; 9%, 5 min): 98%
- % Death ([2]; 9%, 10 min): 96%
- % Death ([2]; 12%, 5 min): 99%
- % Motility ([3]; 6%, 5 min): 1%
- % Motility ([3]; 9%, 5 min): 0%
- % Motility ([3]; 9%, 10 min): 0%
- % Motility ([3]; 12%, 5 min): 0%

Compound: OCCOCCOCCOCC(F)(F)C(F)(F)F [F5-TEG, F5-triethylene glycol]
- inhibition of Candida relative to F7-TEG (Candida albicans): somewhat less inhibitory
- Acrosome Compromised ([1]; 5%): 95%
- Acrosome Not Compromised ([1]; 5%): 5%
- Type I ([1]; 5%): 5%
- Type III ([1]; 5%): 3%
- Type II ([1]; 5%): 28%
- Type IV ([1]; 5%): 64%
- Acrosome Compromised ([1]; 6%): 98%
- Acrosome Not Compromised ([1]; 6%): 2%
- Type I ([1]; 6%): 2%
- Type III ([1]; 6%): 1%
- Type II ([1]; 6%): 3%
- Type IV ([1]; 6%): 93%
- Acrosome Compromised ([1]; 10%): 67%
- Acrosome Not Compromised ([1]; 10%): 33%
- Type I ([1]; 10%): 33%
- Type III ([1]; 10%): 2%
- Type II ([1]; 10%): 26%
- Type IV ([1]; 10%): 38%
- inhibition to growth of E. coli relative to non-fluorous homologs (Escherichia coli): greater inhibition
- inhibition of E. coli relative to F7-TEG (Escherichia coli; comparable doses): less inhibition
- % Death ([2]; 4%, 5 min): 100%
- % Death ([2]; 5%, 5 min): 96%
- % Death ([2]; 6%, 5 min): 100%
- % Death ([2]; 7%, 5 min): 98%
- % Death ([2]; 8%, 5 min): 99%
- % Death ([2]; 9%, 5 min): 100%
- % Death ([2]; 10%, 5 min): 100%
- % Death ([2]; 10%, 10 min): 100%
- % Death ([2]; 12%, 5 min): 96%
- % Death ([2]; 15%, 5 min): 94%
- % Death ([2]; 15%, 10 min): 100%
- % Motility ([3]; 4%, 5 min): 0%
- % Motility ([3]; 5%, 5 min): 0%
- % Motility ([3]; 6%, 5 min): 0%
- % Motility ([3]; 7%, 5 min): 0%
- % Motility ([3]; 8%, 5 min): 0%
- % Motility ([3]; 9%, 5 min): 0%
- % Motility ([3]; 10%, 5 min): 0%
- % Motility ([3]; 10%, 10 min): 0%
- % Motility ([3]; 12%, 5 min): 0%
- % Motility ([3]; 15%, 5 min): 0%
- % Motility ([3]; 15%, 10 min): 0%

Compound: OCCOCCOCCOCC(F)(F)C(F)(F)C(F)(F)F [F7-TEG, F7-triethylene glycol]
- inhibition of Candida (Candida albicans; 5%, exposure 3 hours or longer): substantial inhibition
- Acrosome Compromised ([1]; 5%): 87%
- Acrosome Not Compromised ([1]; 5%): 13%
- Type I ([1]; 5%): 13%
- Type III ([1]; 5%): <1%
- Type II ([1]; 5%): 59%
- Type IV ([1]; 5%): 28%
- Acrosome Compromised ([1]; 6%): 88%
- Acrosome Not Compromised ([1]; 6%): 13%
- Type I ([1]; 6%): 13%
- Type III ([1]; 6%): 5%
- Type II ([1]; 6%): 25%
- Type IV ([1]; 6%): 58%
- Acrosome Compromised ([1]; 10%): 96%
- Acrosome Not Compromised ([1]; 10%): 4%
- Type I ([1]; 10%): 4%
- Type III ([1]; 10%): 3%
- Type II ([1]; 10%): 34%
- Type IV ([1]; 10%): 59%
- inhibition to growth of E. coli relative to non-fluorous homologs (Escherichia coli): greater inhibition
- growth of E. coli (Escherichia coli; final concentrations of 1% or greater, 3 hours or longer): unable to grow
- % Death ([2]; 5%, 5 min): 97%
- % Death ([2]; 5%, 10 min): 99%
- % Death ([2]; 6%, 5 min): 98%
- % Death ([2]; 7%, 5 min): 99%
- % Death ([2]; 8%, 5 min): 100%
- % Death ([2]; 9%, 5 min): 100%
- % Death ([2]; 10%, 5 min): 95%
- % Death ([2]; 12%, 5 min): 99%
- % Death ([2]; 15%, 5 min): 98%
- % Death ([2]; 15%, 10 min): 100%
- % Motility ([3]; 5%, 5 min): 0%
- % Motility ([3]; 6%, 5 min): 0%
- % Motility ([3]; 7%, 5 min): 0%
- % Motility ([3]; 8%, 5 min): 0%
- % Motility ([3]; 9%, 5 min): 0%
- % Motility ([3]; 10%, 5 min): 1%
- % Motility ([3]; 12%, 5 min): 0%
- % Motility ([3]; 15%, 5 min): 0%
- % Motility ([3]; 15%, 10 min): 0%
